Experimental data reported in patent US20250171437A1 (Agios Pharmaceuticals,Inc., priority 2022, published 2025).

Biological target: T1, human PAH with the R408W mutation (A375 R408W cells) (Homo sapiens, UniProt P00439, R408W)
T1 construct: expressed in transfected cells
T1 sequence (P00439 1-452 R408W): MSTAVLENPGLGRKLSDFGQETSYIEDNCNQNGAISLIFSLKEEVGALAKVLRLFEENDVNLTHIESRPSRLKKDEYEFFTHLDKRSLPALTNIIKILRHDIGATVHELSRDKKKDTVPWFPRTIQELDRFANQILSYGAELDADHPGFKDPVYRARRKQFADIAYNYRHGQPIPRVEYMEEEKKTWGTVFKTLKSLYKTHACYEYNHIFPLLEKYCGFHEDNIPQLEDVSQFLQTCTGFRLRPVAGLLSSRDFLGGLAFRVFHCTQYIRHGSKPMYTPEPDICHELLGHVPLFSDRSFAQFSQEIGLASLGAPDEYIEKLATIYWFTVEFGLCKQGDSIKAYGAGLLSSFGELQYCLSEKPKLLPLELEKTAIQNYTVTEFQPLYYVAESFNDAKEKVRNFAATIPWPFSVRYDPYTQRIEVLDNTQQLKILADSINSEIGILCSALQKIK
Assay: Cell Based Phenylalanine Flux Assay
Conditions: A375 R408W cells; 24 hrs with compound, then 20 μM sepiapterin and 800 μM 13C9,15N-Phenylalanine for 4 hours; 13C-Tyrosine by LC-MS; average where tested multiple times
In short: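 Stable R408W PAH A375 cells: 24 h compound pretreatment in duplicate, then 4 h with 800 μM isotope-labelled Phe and 20 μM sepiapterin. Labelled Tyr output by LC-MS; AC50 averaged where repeated.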

Row | Molecule | AC50
1 | Cc1ncoc1C(=O)N1Cc2[nH]cnc2[C@H]1c1nc2ccccc2o1 [Example 941, (S)-(4-(benzo[d]oxazol-2-yl)-4,6-dihydropyrrolo[3,4-d]imidazol-5(1H)-yl)(4-methyloxazol-5-yl)methanone] | 1 to 5 µM
2 | Cc1ncoc1C(=O)N1Cc2[nH]cnc2[C@@H]1c1nc2ccccc2o1 [Example 942, (R)-(4-(benzo[d]oxazol-2-yl)-4,6-dihydropyrrolo[3,4-d]imidazol-5(1H)-yl)(4-methyloxazol-5-yl)methanone] | 1 to 5 µM
3 | FC(F)(F)c1nnc(N2Cc3[nH]cnc3[C@@H]2c2nc3ccccc3o2)o1 [Example 945, (R)-2-(5-(5-(trifluoromethyl)-1,3,4-oxadiazol-2-yl)-1,4,5,6-tetrahydropyrrolo[3,4-d]imidazol-4-yl)benzo[d]oxazole] | ≥ 5 µM
4 | FC(F)(F)c1nnc(N2Cc3[nH]cnc3[C@H]2c2nc3ccccc3o2)o1 [Example 946, (S)-2-(5-(5-(trifluoromethyl)-1,3,4-oxadiazol-2-yl)-1,4,5,6-tetrahydropyrrolo[3,4-d]imidazol-4-yl)benzo[d]oxazole] | 1 to 5 µM
5 | FC(F)(F)c1cnc(N2Cc3[nH]cnc3[C@H]2c2nc3ccccc3o2)nc1 [Example 949, (S)-2-(5-(5-(trifluoromethyl)pyrimidin-2-yl)-1,4,5,6-tetrahydropyrrolo[3,4-d]imidazol-4-yl)benzo[d]oxazole] | 1 to 5 µM
6 | O=C(c1ccnn1C(F)F)N1Cc2[nH]cnc2[C@H]1c1nc2ccccc2o1 [Example 951, (S)-(4-(benzo[d]oxazol-2-yl)-4,6-dihydropyrrolo[3,4-d]imidazol-5(1H)-yl)(1-(difluoromethyl)-1H-pyrazol-5-yl)methanone] | 1 to 5 µM
7 | (R)-(4-(5,7-difluorobenzo[d]oxazol-2-yl)-6,7-dihydro-1H-imidazo[4,5-c]pyridin-5(4H)-yl)(5-(1-methyl-1H-pyrazol-4-yl)-1,3,4-oxadiazol-2-yl)methanone [Example 610] | 1 to 5 µM
8 | (R)-(4-(5-fluorobenzo[d]oxazol-2-yl)-6,7-dihydro-1H-imidazo[4,5-c]pyridin-5(4H)-yl)(6-(methoxymethyl)pyrazolo[1,5-a]pyridin-3-yl)methanone [Example 30] | ≥ 5 µM
9 | (R)-(4-(deuterium)-2-(2-hydroxypropan-2-yl)oxazol-5-yl)(4-fluoro-4-(5-fluorobenzo[d]oxazol-2-yl)-6,7-dihydro-1H-imidazo[4,5-c]pyridin-5(4H)-yl)methanone [Example 906] | ≥ 5 µM

Now from value to molecule:

Row | AC50 | Molecule
10 | 1 to 5 µM | O=C(c1ocnc1C(F)(F)F)N1Cc2[nH]cnc2[C@@H]1c1nc2ccccc2o1 [Example 943, (R)-(4-(benzo[d]oxazol-2-yl)-4,6-dihydropyrrolo[3,4-d]imidazol-5(1H)-yl)(4-(trifluoromethyl)oxazol-5-yl)methanone]
11 | 1 to 5 µM | O=C(c1ocnc1C(F)(F)F)N1Cc2[nH]cnc2[C@H]1c1nc2ccccc2o1 [Example 944, (S)-(4-(benzo[d]oxazol-2-yl)-4,6-dihydropyrrolo[3,4-d]imidazol-5(1H)-yl)(4-(trifluoromethyl)oxazol-5-yl)methanone]
12 | ≥ 5 µM | CC(C)(O)c1nc(C(F)F)c(C(=O)N2Cc3[nH]cnc3[C@H]2c2nc3ccccc3o2)o1 [Example 947, (S)-(4-(benzo[d]oxazol-2-yl)-4,6-dihydropyrrolo[3,4-d]imidazol-5(1H)-yl)(4-(difluoromethyl)-2-(2-hydroxypropan-2-yl)oxazol-5-yl)methanone]
13 | 1 to 5 µM | O=C(c1ccnn1C(F)(F)F)N1Cc2[nH]cnc2[C@H]1c1nc2ccccc2o1 [Example 953, (S)-(4-(benzo[d]oxazol-2-yl)-4,6-dihydropyrrolo[3,4-d]imidazol-5(1H)-yl)(1-(trifluoromethyl)-1H-pyrazol-5-yl)methanone]
14 | ≤ 0.5 µM | (R)-(3-(difluoromethyl)-1-methyl-1H-1,2,4-triazol-5-yl)(4-(4-methylbenzo[d]oxazol-2-yl)-6,7-dihydro-1H-imidazo[4,5-c]pyridin-5(4H)-yl)methanone [Example 814]
15 | 1 to 5 µM | (R)-(3-chloro-1-methyl-1H-1,2,4-triazol-5-yl)(4-(6-fluorobenzo[d]oxazol-2-yl)-6,7-dihydro-1H-imidazo[4,5-c]pyridin-5(4H)-yl)methanone [Example 344]
